{"source": "the NIST ThermoML archive (doi:10.1021/je200128y)", "conditions": "Transpiration method", "note": "Several values for one entry are separate records, joined by “and”; a condition that tells them apart may be missing. Identical values can stand only once. ± gives the expanded uncertainty stated by the source."}
{"smiles": "c1ccc(Nc2ccccc2)cc1", "note": "[diphenylamine]", "values": [{"measurement": "vapor or sublimation pressure", "setting": "293.1 K, Crystal", "value": "4e-05 ± 1e-05", "unit": "kPa"}, {"measurement": "vapor or sublimation pressure", "setting": "293.7 K, Crystal", "value": "4e-05 ± 1e-05", "unit": "kPa"}, {"measurement": "vapor or sublimation pressure", "setting": "296.2 K, Crystal", "value": "6e-05 ± 1e-05", "unit": "kPa"}, {"measurement": "vapor or sublimation pressure", "setting": "298.2 K, Crystal", "value": "7e-05 ± 1e-05", "unit": "kPa"}, {"measurement": "vapor or sublimation pressure", "setting": "298.4 K, Crystal", "value": "8e-05 ± 1e-05", "unit": "kPa"}, {"measurement": "vapor or sublimation pressure", "setting": "300.2 K, Crystal", "value": "0.0001 ± 1e-05", "unit": "kPa"}, {"measurement": "vapor or sublimation pressure", "setting": "301 K, Crystal", "value": "0.00012 ± 1e-05", "unit": "kPa"}, {"measurement": "vapor or sublimation pressure", "setting": "302.1 K, Crystal", "value": "0.00013 ± 1e-05", "unit": "kPa"}, {"measurement": "vapor or sublimation pressure", "setting": "302.7 K, Crystal", "value": "0.00015 ± 1e-05", "unit": "kPa"}, {"measurement": "vapor or sublimation pressure", "setting": "303.2 K, Crystal", "value": "0.00014 ± 1e-05", "unit": "kPa"}, {"measurement": "vapor or sublimation pressure", "setting": "305.2 K, Crystal", "value": "0.00017 ± 2e-05", "unit": "kPa"}, {"measurement": "vapor or sublimation pressure", "setting": "305.5 K, Crystal", "value": "0.0002 ± 2e-05", "unit": "kPa"}, {"measurement": "vapor or sublimation pressure", "setting": "308 K, Crystal", "value": "0.00024 ± 2e-05 kPa and 0.00025 ± 2e-05 kPa"}, {"measurement": "vapor or sublimation pressure", "setting": "308.2 K, Crystal", "value": "0.00026 ± 2e-05", "unit": "kPa"}, {"measurement": "vapor or sublimation pressure", "setting": "309.1 K, Crystal", "value": "0.00029 ± 3e-05", "unit": "kPa"}, {"measurement": "vapor or sublimation pressure", "setting": "309.3 K, Crystal", "value": "0.0003 ± 3e-05", "unit": "kPa"}, {"measurement": "vapor or sublimation pressure", "setting": "310.7 K, Crystal", "value": "0.00034 ± 3e-05", "unit": "kPa"}, {"measurement": "vapor or sublimation pressure", "setting": "312.3 K, Crystal", "value": "0.00042 ± 4e-05", "unit": "kPa"}, {"measurement": "vapor or sublimation pressure", "setting": "313 K, Crystal", "value": "0.00045 ± 4e-05", "unit": "kPa"}, {"measurement": "vapor or sublimation pressure", "setting": "313.7 K, Crystal", "value": "0.0005 ± 4e-05", "unit": "kPa"}, {"measurement": "vapor or sublimation pressure", "setting": "315 K, Crystal", "value": "0.00054 ± 5e-05 kPa and 0.00055 ± 5e-05 kPa"}, {"measurement": "vapor or sublimation pressure", "setting": "315.4 K, Crystal", "value": "0.00061 ± 5e-05", "unit": "kPa"}, {"measurement": "vapor or sublimation pressure", "setting": "315.7 K, Crystal", "value": "0.0006 ± 5e-05", "unit": "kPa"}, {"measurement": "vapor or sublimation pressure", "setting": "316 K, Crystal", "value": "0.00065 ± 6e-05", "unit": "kPa"}, {"measurement": "vapor or sublimation pressure", "setting": "316.7 K, Crystal", "value": "0.0007 ± 6e-05", "unit": "kPa"}, {"measurement": "vapor or sublimation pressure", "setting": "317.2 K, Crystal", "value": "0.00075 ± 7e-05", "unit": "kPa"}, {"measurement": "vapor or sublimation pressure", "setting": "318 K, Crystal", "value": "0.00083 ± 7e-05", "unit": "kPa"}, {"measurement": "vapor or sublimation pressure", "setting": "318.2 K, Crystal", "value": "0.00086 ± 8e-05", "unit": "kPa"}, {"measurement": "vapor or sublimation pressure", "setting": "318.3 K, Crystal", "value": "0.00085 ± 7e-05", "unit": "kPa"}, {"measurement": "vapor or sublimation pressure", "setting": "318.7 K, Crystal", "value": "0.00085 ± 7e-05", "unit": "kPa"}, {"measurement": "vapor or sublimation pressure", "setting": "320.3 K, Crystal", "value": "0.00111 ± 0.0001", "unit": "kPa"}, {"measurement": "vapor or sublimation pressure", "setting": "320.7 K, Crystal", "value": "0.0011 ± 0.0001", "unit": "kPa"}, {"measurement": "vapor or sublimation pressure", "setting": "322.3 K, Crystal", "value": "0.00138 ± 0.00012", "unit": "kPa"}, {"measurement": "vapor or sublimation pressure", "setting": "323.2 K, Crystal", "value": "0.00153 ± 0.00013 kPa and 0.00143 ± 0.00013 kPa"}, {"measurement": "vapor or sublimation pressure", "setting": "324.1 K, Crystal", "value": "0.00169 ± 0.00015", "unit": "kPa"}, {"measurement": "vapor or sublimation pressure", "setting": "324.7 K, Crystal", "value": "0.00164 ± 0.00014", "unit": "kPa"}, {"measurement": "vapor or sublimation pressure", "setting": "325.2 K, Crystal", "value": "0.00186 ± 0.00016", "unit": "kPa"}, {"measurement": "vapor or sublimation pressure", "setting": "326.7 K, Crystal", "value": "0.00203 ± 0.00018", "unit": "kPa"}, {"measurement": "vapor or sublimation pressure", "setting": "328.3 K, Liquid", "value": "0.00245 ± 0.00021", "unit": "kPa"}, {"measurement": "vapor or sublimation pressure", "setting": "332.2 K, Liquid", "value": "0.00343 ± 0.0003", "unit": "kPa"}, {"measurement": "vapor or sublimation pressure", "setting": "335.4 K, Liquid", "value": "0.00438 ± 0.00038", "unit": "kPa"}, {"measurement": "vapor or sublimation pressure", "setting": "338.1 K, Liquid", "value": "0.00522 ± 0.00046", "unit": "kPa"}, {"measurement": "vapor or sublimation pressure", "setting": "341.2 K, Liquid", "value": "0.00684 ± 0.0006", "unit": "kPa"}, {"measurement": "vapor or sublimation pressure", "setting": "343.2 K, Liquid", "value": "0.0081 ± 0.00071", "unit": "kPa"}, {"measurement": "vapor or sublimation pressure", "setting": "346.1 K, Liquid", "value": "0.00963 ± 0.00084", "unit": "kPa"}, {"measurement": "vapor or sublimation pressure", "setting": "348.2 K, Liquid", "value": "0.01174 ± 0.001", "unit": "kPa"}, {"measurement": "vapor or sublimation pressure", "setting": "353.1 K, Liquid", "value": "0.01698 ± 0.0015", "unit": "kPa"}, {"measurement": "vapor or sublimation pressure", "setting": "357.2 K, Liquid", "value": "0.02181 ± 0.0019", "unit": "kPa"}, {"measurement": "vapor or sublimation pressure", "setting": "358.2 K, Liquid", "value": "0.02355 ± 0.0021", "unit": "kPa"}, {"measurement": "vapor or sublimation pressure", "setting": "360.2 K, Liquid", "value": "0.02829 ± 0.0025", "unit": "kPa"}, {"measurement": "vapor or sublimation pressure", "setting": "363 K, Liquid", "value": "0.0322 ± 0.0028", "unit": "kPa"}, {"measurement": "vapor or sublimation pressure", "setting": "363.1 K, Liquid", "value": "0.03321 ± 0.0029", "unit": "kPa"}, {"measurement": "vapor or sublimation pressure", "setting": "366.1 K, Liquid", "value": "0.04193 ± 0.0037", "unit": "kPa"}, {"measurement": "vapor or sublimation pressure", "setting": "368.1 K, Liquid", "value": "0.04848 ± 0.0042", "unit": "kPa"}, {"measurement": "vapor or sublimation pressure", "setting": "368.3 K, Liquid", "value": "0.04791 ± 0.0042", "unit": "kPa"}, {"measurement": "vapor or sublimation pressure", "setting": "371.9 K, Liquid", "value": "0.06108 ± 0.0053", "unit": "kPa"}, {"measurement": "vapor or sublimation pressure", "setting": "373.1 K, Liquid", "value": "0.06621 ± 0.0058", "unit": "kPa"}]}
